According to patent US8871756B2 (Hoffmann-La Roche Inc., priority 2011, dated 2014):

system: RSV Long strain; assay: Viral cytopathic effect (CPE) assay, anti-RSV activity; assay type: cell-based, Respiratory Syncytial Virus; settings: RSV Long strain (ATCC); cell viability after 6 days, Cell Counting kit-8
Description: Viral cytopathic effect (CPE) assay: To measure anti-RSV activity of compounds, 96-well plates are seeded with 6×10^3 cells per well in Dulbecco's modified Eagle's medium (DMEM) containing 10% fetal bovine serum (FBS). Cells are infected the next day with sufficient RSV Long strain (ATCC) to produce an approximately 80-90% cytopathic effect after 6 days, in the presence of serial half-log diluted compound in a total volume of 200 μL per well. The viability of cells is assessed after 6 days using Cell Counting kit-8 (Dojindo Molecular Technologies). The absorbance at 450 nm and referenced at 630 nm is measured to determine 50% effective concentration (EC50).
The compounds of the present invention were tested for their anti-RSV activity, and the activation as described herein. The Examples were tested in the above assay and found to have EC50 of about 0.0001 μM to about 10 μM.

| EC50 [µM] | SMILES |
| --- | --- |
| 0.0013 | Cc1ccc2nc(N3CC[S+]([O-])c4ccccc4C3)nc(NCC3(CN)COC3)c2c1 (single isomer, unassigned; (+)) [Example 62-3, (+)-N-{[3-(Aminomethyl)oxetan-3-yl]methyl}-6-methyl-2-[1-oxido-2,3-dihydro-1,4-benzothiazepin-4(5H)-yl]quinazolin-4-amine] |
| 0.0017 | Cc1ccc2nc(N3CC[S+]([O-])c4ccccc4C3)nc(NCC3(CN)COC3)c2c1 (single isomer, unassigned; (-)) [Example 62-2] |

Second part, the compound before the results:

| SMILES | EC50 [µM] |
| --- | --- |
| Cc1ccc2nc(N3CC[S+]([O-])c4ccccc4C3)cc(NCC3(N)COC3)c2c1 (single isomer, unassigned; (+)) [Example 18-2, (+)-N-[(3-Aminooxetan-3-yl)methyl]-6-methyl-2-[1-oxido-2,3-dihydro-1,4-benzothiazepin-4(5H)-yl]quinolin-4-amine] | 0.024 |
| Cc1ccc2nc(N3CC[S+]([O-])c4ccccc4C3)cc(NCC3(N)COC3)c2c1 (single isomer, unassigned; (-)) [Example 18-3, (−)-N-[(3-Aminooxetan-3-yl)methyl]-6-methyl-2-[1-oxido-2,3-dihydro-1,4-benzothiazepin-4(5H)-yl]quinolin-4-amine] | 0.014 |

same assay, conditions: human respiratory syncytial virus, 144 h, RSV Long strain (ATCC); cell viability after 6 days, Cell Counting kit-8

| EC50 [µM] | SMILES |
| --- | --- |
| 6.86 | N[C@@H]1CN(c2cc(N3CC[S+]([O-])c4ccccc4C3)nc3ccc(Cl)cc23)C[C@H]1F (relative stereo) [Example 19-7, trans-1-[6-Chloro-2-(1-oxido-2,3-dihydro-1,4-benzothiazepin-4(5H)-yl)quinolin-4-yl]-4-fluoropyrrolidin-3-amine] |
| 0.016 | N[C@@H]1CN(c2cc(N3CCS(=O)(=O)c4ccccc4C3)nc3ccncc23)C[C@H]1O (relative stereo) [Example 24, trans-4-Amino-1-[2-(1,1-dioxido-2,3-dihydro-1,4-benzothiazepin-4(5H)-yl)-1,6-naphthyridin-4-yl]pyrrolidin-3-ol] |
| 0.007 | O=S1(=O)CCN(c2cc(N[C@@H]3CNC[C@H]3O)c3ccccc3n2)Cc2ccccc21 (relative stereo) [Example 28-2, trans-4-{[2-(1,1-Dioxido-2,3-dihydro-1,4-benzothiazepin-4(5H)-yl)quinolin-4-yl]amino}pyrrolidin-3-ol] |
| 0.001 | Cc1ccc2nc(N3CCS(=O)(=O)c4ccccc4C3)cc(N[C@@H]3CNC[C@H]3O)c2c1 (relative stereo) [Example 28-3, trans-4-{[2-(1,1-Dioxido-2,3-dihydro-1,4-benzothiazepin-4(5H)-yl)-6-methylquinolin-4-yl]amino}pyrrolidin-3-ol] |
| 0.001 | Cc1ccc2nc(N3CCS(=O)(=O)c4ccccc4C3)cc(N[C@H]3CNC[C@H]3O)c2c1 (relative stereo) [Example 28-4, cis-4-{[2-(1,1-Dioxido-2,3-dihydro-1,4-benzothiazepin-4(5H)-yl)-6-methylquinolin-4-yl]amino}pyrrolidin-3-ol] |
| 0.003 | Cc1ccc2nc(N3CC[S+]([O-])c4ccccc4C3)cc(N[C@@H]3CNC[C@H]3F)c2c1 (relative stereo) [Example 28-5, N-[trans-4-Fluoropyrrolidin-3-yl]-6-methyl-2-(1-oxido-2,3-dihydro-1,4-benzothiazepin-4(5H)-yl)quinolin-4-amine] |
| 6.65 | Cc1ccc2nc(N3CCS(=O)(=O)c4ccccc4C3)cc(N3C[C@@H]4OC(N)=N[C@@H]4C3)c2c1 (relative stereo) [Example 38-5, cis-5-[2-(1,1-Dioxido-2,3-dihydro-1,4-benzothiazepin-4(5H)-yl)-6-methylquinolin-4-yl]-4,5,6,6a-tetrahydro-3aH-pyrrolo[3,4-d][1,3]oxazol-2-amine] |
| 0.186 | Cc1ccc2nc(N3CC[S+]([O-])c4ccccc4C3)nc(N3C[C@@H](N)[C@H](F)C3)c2c1 (relative stereo) [Example 62-7, trans-4-Fluoro-1-[6-methyl-2-(1-oxido-2,3-dihydro-1,4-benzothiazepin-4(5H)-yl)quinazolin-4-yl]pyrrolidin-3-amine] |
| 0.25 | Cc1ccc2nc(N3CCS(=O)(=O)c4ccccc4C3)cc(N3C[C@@H](N)[C@H](F)C3)c2c1 (relative stereo) [Example 78-2, trans-1-[2-(1,1-Dioxido-2,3-dihydro-1,4-benzothiazepin-4(5H)-yl)-6-methylquinolin-4-yl]-4-fluoropyrrolidin-3-amine] |
| 0.009 | Cc1ccc2nc(N3CC[S+]([O-])c4ccccc4C3)nc(N[C@@H]3CNC[C@H]3F)c2c1 (relative stereo) [Example 92-1, N-(trans-4-Fluoropyrrolidin-3-yl)-6-methyl-2-(1-oxido-2,3-dihydro-1,4-benzothiazepin-4(5H)-yl)quinazolin-4-amine] |
| 0.019 | Cc1ccc2nc(N3CCS(=O)(=O)c4ccccc4C3)nc(N[C@@H]3CNC[C@H]3F)c2c1 (relative stereo) [Example 92-2, N-(trans-4-Fluoropyrrolidin-3-yl)-6-methyl-2-(1,1-dioxido-2,3-dihydro-1,4-benzothiazepin-4(5H)-yl)quinazolin-4-amine] |
| 0.588 | Cc1ccc2nc(N3CCC(F)(F)c4ccccc4C3)cc(N3C[C@@H](N)[C@H](O)C3)c2c1 (relative stereo) [Example 111-11, trans-4-Amino-1-[2-(5,5-difluoro-1,3,4,5-tetrahydro-2H-2-benzazepin-2-yl)-6-methylquinolin-4-yl]pyrrolidin-3-ol] |

Continued, compound first:

| SMILES | EC50 [µM] |
| --- | --- |
| Cc1ccc2nc(N3CCS(=O)(=O)c4ccccc4C3)cc(N[C@@H]3CCCC[C@H]3N)c2c1 (relative stereo) [Example 3-15, trans-N-[2-(1,1-Dioxido-2,3-dihydro-1,4-benzothiazepin-4(5H)-yl)-6-methylquinolin-4-yl]cyclohexane-1,2-diamine] | 0.482 |
| CO[C@@H]1CN(c2cc(N3CCS(=O)(=O)c4ccccc4C3)nc3ccc(C)cc23)C[C@H]1N (relative stereo) [Example 8-3, trans-1-[2-(1,1-Dioxido-2,3-dihydro-1,4-benzothiazepin-4(5H)-yl)-6-methylquinolin-4-yl]-4-methoxypyrrolidin-3-amine] | 0.9 |
| CO[C@@H]1CNC[C@H]1Nc1cc(N2CCS(=O)(=O)c3ccccc3C2)nc2ccc(C)cc12 (relative stereo) [Example 8-4, 2-(1,1-Dioxido-2,3-dihydro-1,4-benzothiazepin-4(5H)-yl)-N-[trans-4-methoxypyrrolidin-3-yl]-6-methylquinolin-4-amine] | 0.064 |
| Cc1ccc2nc(N3CCS(=O)(=O)c4ccccc4C3)cc(N3C[C@@H](O)[C@@H](N)C3)c2c1 (relative stereo) [Example 13, cis-4-amino-1-[2-(1,1-Dioxido-2,3-dihydro-1,4-benzothiazepin-4(5H)-yl)-6-methylquinolin-4-yl]pyrrolidin-3-ol] | 0.026 |
| Cc1ccc2nc(N3CCS(=O)(=O)c4ccccc4C3)cc(N[C@@H]3CCC[C@H]3N)c2c1 (relative stereo) [Example 15-5, trans-N-[2-(1,1-Dioxido-2,3-dihydro-1,4-benzothiazepin-4(5H)-yl)-6-methylquinolin-4-yl]cyclopentane-1,2-diamine] | 0.74 |
| Cc1ccc2nc(N3CC[S+]([O-])c4ccccc4C3)cc(N3C[C@@H](N)[C@H](O)C3)c2c1 (relative stereo) [Example 19-1, trans-4-Amino-1-[6-methyl-2-(1-oxido-2,3-dihydro-1,4-benzothiazepin-4(5H)-yl)quinolin-4-yl]pyrrolidin-3-ol] | 0.043 |
| Cc1ccc2nc(N3CCS(=O)(=O)c4ccccc4C3)cc(N3C[C@@H](N)[C@H](O)C3)c2c1 (relative stereo) [Example 19-3, trans-4-Amino-1-[2-(1,1-dioxido-2,3-dihydro-1,4-benzothiazepin-4(5H)-yl)-6-methylquinolin-4-yl]pyrrolidin-3-ol] | 0.006 |
| N[C@@H]1CN(c2cc(N3CCS(=O)(=O)c4ccccc4C3)nc3ccc(Cl)cc23)C[C@H]1F (relative stereo) [Example 19-5, trans-1-[6-Chloro-2-(1,1-dioxido-2,3-dihydro-1,4-benzothiazepin-4(5H)-yl)quinolin-4-yl]-4-fluoropyrrolidin-3-amine] | 3.07 |
| N[C@@H]1CN(c2cc(N3CCS(=O)(=O)c4ccccc4C3)nc3ccc(Cl)cc23)C[C@H]1O (relative stereo) [Example 19-6, trans-4-Amino-1-[6-chloro-2-(1,1-dioxido-2,3-dihydro-1,4-benzothiazepin-4(5 H)-yl)quinolin-4-yl]pyrrolidin-3-ol] | 0.054 |
| COc1ccc2c(c1)S(=O)(=O)CCN(c1cc(NCC3(N)COC3)c3cc(C)ccc3n1)C2 [Example 1-1, N-[(3-Aminooxetan-3-yl)methyl]-2-(8-methoxy-1,1-dioxido-2,3-dihydro-1,4-benzothiazepin-4(5H)-yl)-6-methylquinolin-4-amine] | 0.002 |
| Cc1ccc2nc(N3CCS(=O)(=O)c4cc(F)ccc4C3)cc(NCC3(N)COC3)c2c1 [Example 1-2, N-[(3-Aminooxetan-3-yl)methyl]-2-(8-fluoro-1,1-dioxido-2,3-dihydro-1,4-benzothiazepin-4(5H)-yl)-6-methylquinolin-4-amine] | 0.007 |
| Cc1ccc2nc(N3CCS(=O)(=O)c4ccc(F)cc4C3)cc(NCC3(N)COC3)c2c1 [Example 1-3, N-[(3-Aminooxetan-3-yl)methyl]-2-(7-fluoro-1,1-dioxido-2,3-dihydro-1,4-benzothiazepin-4(5H)-yl)-6-methylquinolin-4-amine] | 0.072 |
| Cc1ccc2nc(N3CCS(=O)(=O)c4c(F)cccc4C3)cc(NCC3(N)COC3)c2c1 [Example 1-4, N-[(3-Aminooxetan-3-yl)methyl]-2-(9-fluoro-1,1-dioxido-2,3-dihydro-1,4-benzothiazepin-4(5H)-yl)-6-methylquinolin-4-amine] | 0.004 |
